Experiments:
K562 = test: Cytotoxicity against human leukemia cell line K562; type: functional, cell-based
[1] = Dissociation binding constant was determined for apoNCS binding site using fluorescence quenching titration assay
[2] = Dissociation binding constant was determined for apoNCS binding site using fluorescence quenching titration assay; Insufficient change in fluorescence

Structure (SMILES)	IC50 (K562) [µM]	Kd [1] [µM]	Kd [2]
COc1cc(C)c2ccc(O)c(C(=O)OCCOC(=O)C(N)Cc3ccc(N(CCCl)CCCl)cc3)c2c1 (configuration not stated)	7	47	–
COc1cc(C)c2ccc(O)c(C(=O)OCCOC(=O)CCCc3ccc(N(CCCl)CCCl)cc3)c2c1	200	> 1000	–
O=C(O)CCCc1ccc(N(CCCl)CCCl)cc1 [CHLORAMBUCIL]	95	–	–
N[C@@H](Cc1ccc(N(CCCl)CCCl)cc1)C(=O)O [MELPHALAN]	30	–	Insufficient change in fluorescence

Reference: ChEMBL document CHEMBL1137988, “Design and synthesis of a nitrogen mustard derivative stabilized by apo-neocarzinostatin” (J Med Chem, 2004)
